Experimental data from PMC12617972, “Inhibition of human cytomegalovirus replication by valaciclovir” (The Journal of General Virology, 2025).
Entries after “also recorded” stand apart in the source; their conditions may differ. Like-named read-outs stand apart in the source and are kept apart here.

Tests used:
HSV-1 strain 17+ = test: Virus yield assay, HSV in HFF cells; format: cell-based, herpes simplex virus; conditions: HFF (adult fibroblast) cells, MOI 1, 48 h post-infection
[1] = test system: HCMV strain Merlin (R1111); test: microbe, parasite or virus in culture; format: cell-based, human cytomegalovirus; conditions: for anti-HCMV activity in HFFF cells relative to other cell lines: HFFF cells vs HFF and SGHPL-4 cells; for EC50: read-out: 50% effective dose (EC50), anti-HCMV activity
uninfected cell = test system: uninfected cell; design: method as in PMID 16492567; conditions: cited from earlier work
HCMV [2] = conditions: previous studies; cited from earlier work
HFF cells = conditions: uninfected HFF cells, 96 h, high and low cell numbers
[3] = 2,000 mg dose; calculated with ChatGPT3 as Cmax × 1,000/molecular weight from commonly used literature Cmax values; cited from earlier work
HCMV [4] = test system: HCMV; design: method as in PMID 32919517; conditions: high doses administered during pregnancy, clinical trial; cited from earlier work
[5] = 2,000 mg/6 h; cited from earlier work
SGHPL-4 cells = conditions: uninfected SGHPL-4 cells, 96 h, high and low cell numbers, 0.5% FBS
HFFF cells = conditions: uninfected HFFF cells, 96 h, high and low cell numbers
[6] = HFF, HFFF and SGHPL-4 cells, MOI 1, 96 h
[7] = Human betaherpesvirus 5, Fibroblast, 96 h

SMILES | 50% effective dose (EC50), anti-HSV activity (HSV-1 strain 17+) | anti-HCMV effects compared to GCV [1, 6] | anti-HCMV activity in HFFF cells relative to other cell lines ([1]; MOI 1, 96 h) | EC50 [1, 7] [µM] | effect on uninfected cell viability in vitro (uninfected cell) | difference between GCV and ACV inhibition of HCMV ([1]; found here, HFF cells) | difference between GCV and ACV anti-HCMV effects in vitro (HCMV [2]) | effect on cell viability and cell division (MTT) (HFF cells) | plasma concentration [3] [µM] | inhibition of HCMV foetal infection (HCMV [4]) | inhibition of HCMV replication in each cell line ([1]; HFF, HFFF and SGHPL-4 cells, lower drug concentration, MOI 1, 96 h) | EC50 ([1]; Human betaherpesvirus 5, HFF (adult fibroblast) cells, MOI 1, 96 h post-infection, virus yield) [µM] | tolerability in patients [5] | effect on cell viability and cell division (MTT) (SGHPL-4 cells) | effect on cell viability and cell division (MTT) (HFFF cells)
Nc1nc2c(ncn2COCCO)c(=O)[nH]1 [ACV, aciclovir] | well below micromolar concentrations | less anti-HCMV effects compared to GCV | less than in HFF and SGHPL-4 cells | 2.7 |  |  |  |  |  |  |  |  |  |  | 
Nc1nc(O)c2ncn(COC(CO)CO)c2n1 [GCV, ganciclovir] | well below micromolar concentrations |  |  | 0.5 | little or no effect | approximately fivefold difference | approximately tenfold difference; also recorded: approximately tenfold greater |  |  |  |  |  |  |  | 
CC(C)[C@H](N)C(=O)OCCOCn1cnc2c(=O)[nH]c(N)nc21 [VACV, valaciclovir] |  | less anti-HCMV effects compared to GCV | less than in HFF and SGHPL-4 cells |  |  |  |  | no obvious effect on cell viability | 35 to 40 | notable inhibition of HCMV foetal infection | inhibitor of HCMV in all cell lines | 3.4 | well tolerated by patients, without toxicity | no obvious effect on cell viability | no obvious effect on cell viability
